Measurements from patent publication US8940731B2, “Substituted pyridyl amide compounds as modulators of the histamine H3 receptor” (Janssen Pharmaceutica NV, priority 2006, dated 2015).
pKi: −log10 of the molar value. Counter-ions that a name gives are not always drawn. Like-named read-outs stand apart in the source and are kept apart here.

Key:
[1] = target: T1, cloned human H3 receptors (Homo sapiens, UniProt Q9Y5N1); assay: H3 Receptor Binding (Human)
T1 construct: expressed in transfected cells
T1 sequence (Q9Y5N1 whole entry): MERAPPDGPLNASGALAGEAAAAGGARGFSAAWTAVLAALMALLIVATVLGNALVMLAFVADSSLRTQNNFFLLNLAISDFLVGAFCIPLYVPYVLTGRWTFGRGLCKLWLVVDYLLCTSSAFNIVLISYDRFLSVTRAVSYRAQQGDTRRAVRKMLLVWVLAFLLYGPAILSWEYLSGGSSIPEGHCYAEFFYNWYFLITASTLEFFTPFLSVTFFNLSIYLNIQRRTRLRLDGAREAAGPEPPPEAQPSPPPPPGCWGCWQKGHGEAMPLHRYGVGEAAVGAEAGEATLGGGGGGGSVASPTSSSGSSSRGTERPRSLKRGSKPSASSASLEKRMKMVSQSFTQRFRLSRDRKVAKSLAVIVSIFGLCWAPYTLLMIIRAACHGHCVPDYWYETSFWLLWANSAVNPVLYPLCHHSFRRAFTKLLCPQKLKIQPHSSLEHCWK
Protocol: H3 Receptor Binding (Human)
Binding of compounds to the cloned human H3 receptors, stably expressed in SK-N-MC cells, was performed as described by Barbier, A. J. et al. (Br. J. Pharmacol. 2004, 143(5), 649-661).

Rat H3 = Rat H3 (Rattus norvegicus, UniProt Q9QYN8); assay: H3 Receptor Binding (Rat); details: rat brain membranes without cerebellum, 0.8 nM N-[3H]-α-methylhistamine, 60 min at 25° C.; average of the results obtained
Chain of Rat H3 (Q9QYN8 1-397 isoform Q9QYN8-3): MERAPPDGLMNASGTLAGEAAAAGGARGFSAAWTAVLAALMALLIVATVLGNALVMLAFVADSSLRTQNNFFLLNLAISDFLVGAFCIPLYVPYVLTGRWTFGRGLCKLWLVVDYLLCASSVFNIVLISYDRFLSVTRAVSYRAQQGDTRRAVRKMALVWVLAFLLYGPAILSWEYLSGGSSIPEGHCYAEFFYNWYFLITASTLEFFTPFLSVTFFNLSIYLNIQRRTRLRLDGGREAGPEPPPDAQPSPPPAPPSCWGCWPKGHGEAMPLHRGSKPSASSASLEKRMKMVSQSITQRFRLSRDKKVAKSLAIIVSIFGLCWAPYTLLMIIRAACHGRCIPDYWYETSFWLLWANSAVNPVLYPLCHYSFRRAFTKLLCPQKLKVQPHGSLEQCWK
Protocol: H3 Receptor Binding (Rat)
A rat brain without cerebellum (Zivic Laboratories Inc., Pittsburgh, Pa.) was homogenized in 50 mM Tris-HCl/5 mM EDTA and centrifuged at 1,000 rpm for 5 min. The supernatant was removed and recentrifuged at 15,000 rpm for 30 min. Pellets were rehomogenized in 50 mM Tris/5 mM EDTA (pH 7.4). Membranes were incubated with 0.8 nM N-[^3H]-α-methylhistamine plus/minus test compounds for 60 min at 25° C. and harvested by rapid filtration over GF/C glass fiber filters (pretreated with 0.3% polyethylenimine) followed by four washes with buffer. Nonspecific binding was defined in the presence of 100 μM histamine.

human H3 receptor = target: T2, human H3 receptor (Homo sapiens, UniProt Q9Y5N1); assay: Cyclic AMP Accumulation (human H3 receptor); assay type: cell-based
T2 construct: expressed in transfected cells; host or cells: SK-N-MC sublines with a reporter construct
T2 sequence (Q9Y5N1 whole entry): as the sequence (Q9Y5N1 whole entry) above
Text: Sublines of SK-N-MC cells were created that expressed a reporter construct and either the human or rat H3 receptor.

[2] = cloned human H3 receptors stably expressed in SK-N-MC cells, average of the results obtained, read-out: Human H3 Ki
[3] = bromo-pyridine intermediates (Step A), value given in the synthesis, read-out: Assay 1 (Human H3): Ki

pKi [1, 2]	pKi (Rat H3)	pKi [1, 3]	Compound	Kb (human H3 receptor)
8.30	6.89	–	O=C(c1ccc(Oc2cccc(F)c2)nc1)N1CCCN(C2CC2)CC1 [Example 37, (4-Cyclopropyl-[1,4]diazepan-1-yl)-[6-(3-fluoro-phenoxy)-pyridin-3-yl]-methanone]	–
8.70	7.17	–	O=C(c1ccc(Oc2ccc(F)cc2)nc1)N1CCCN(C2CC2)CC1 [Example 18, (4-Cyclopropyl-[1,4]diazepan-1-yl)-[6-(4-fluoro-phenoxy)-pyridin-3-yl]-methanone]	–
8.40	6.96	–	O=C(c1ccc(Oc2ccc(Cl)c(Cl)c2)cn1)N1CCCN(C2CC2)CC1 [Example 52, (4-Cyclopropyl-[1,4]diazepan-1-yl)-[5-(3,4-dichloro-phenoxy)-pyridin-2-yl]-methanone trifluoroacetic acid salt]	–
7.68	–	–	CSc1ccc(Oc2ccc(C(=O)N3CCCN(C4CC4)CC3)nc2C#N)cc1 [Example 55, 6-(4-Cyclopropyl-[1,4]diazepane-1-carbonyl)-3-(4-methylsulfanyl-phenoxy)-pyridine-2-carbonitrile]	–
9.00	–	–	O=C(c1ccc(Sc2ccc(Cl)cc2)nc1)N1CCCN(C2CCC2)CC1 [Example 85, [6-(4-Chloro-phenylsulfanyl)-pyridin-3-yl]-(4-cyclobutyl-[1,4]diazepan-1-yl)-methanone]	–
7.89	–	–	CC(C)N1CCN(C(=O)c2ccc(Oc3ccc(F)c(F)c3)nc2)CC1 [Example 28, [6-(3,4-Difluoro-phenoxy)-pyridin-3-yl]-(4-isopropyl-piperazin-1-yl)-methanone]	–
8.22	–	–	CC(C)N1CCCN(C(=O)c2ccc(Oc3cccc(F)c3)nc2)CC1 [Example 38, [6-(3-Fluoro-phenoxy)-pyridin-3-yl]-(4-isopropyl-[1,4]diazepan-1-yl)-methanone]	–
9.00	–	–	O=C(c1ccc(Sc2ccc(F)cc2)nc1)N1CCCN(C2CCC2)CC1 [Example 97, (4-Cyclobutyl-[1,4]diazepan-1-yl)-[6-(4-fluoro-phenylsulfanyl)-pyridin-3-yl]-methanone]	–
–	–	7.48	O=C(c1cccc(Br)n1)N1CCCN(C2CCC2)CC1 [(6-Bromo-pyridin-2-yl)-(4-cyclobutyl-[1,4]diazepan-1-yl)-methanone]	–
7.72	–	–	CCN1CCCN(C(=O)c2ccc(Oc3ccc(F)cc3)nc2)CC1 [Example 98, (4-Ethyl-[1,4]diazepan-1-yl)-[6-(4-fluoro-phenoxy)-pyridin-3-yl]-methanone]	–
7.66	–	–	O=C(c1ccc(Oc2ccc(Cl)cc2)nc1)N1CCN(C2CCCC2)CC1 [Example 77, [6-(4-Chloro-phenoxy)-Pyridin-3-yl]-(4-cyclopentyl-piperazin-1-yl)-methanone]	–
8.70	–	–	O=C(c1ccc(Oc2ccccc2F)cn1)N1CCCN(C2CCC2)CC1 [Example 72, (4-Cyclobutyl-[1,4]diazepan-1-yl)-[5-(2-fluoro-phenoxy)-pyridin-2-yl]-methanone]	–
7.72	–	–	O=C(c1ccc(Oc2ccccc2Cl)nc1)N1CCN(C2CCCC2)CC1 [Example 76, [6-(2-Chloro-phenoxy)-Pyridin-3-yl]-(4-cyclopentyl-piperazin-1-yl)-methanone]	–
8.70	–	–	O=C(c1ccc(Oc2ccc(F)cc2)cn1)N1CCCN(C2CCC2)CC1 [Example 69, (4-Cyclobutyl-[1,4]diazepan-1-yl)-[5-(4-fluoro-phenoxy)-pyridin-2-yl]-methanone trifluoroacetic acid salt]	–
8.40	7.12	–	CSc1ccc(Oc2ccc(C(=O)N3CCCN(C4CC4)CC3)cn2)cc1C [Example 41, (4-Cyclopropyl-[1,4]diazepan-1-yl)-[6-(3-methyl-4-methylsulfanyl-phenoxy)-pyridin-3-yl]-methanone]	–
6.69	–	–	CC(C)N1CCCN(C(=O)c2cccc(Oc3ccc(Cl)c(Cl)c3)n2)CC1 [Example 46, [6-(3,4-Dichloro-phenoxy)-pyridin-2-yl]-(4-isopropyl-[1,4]diazepan-1-yl)-methanone]	–
7.01	–	–	CSc1ccc(Oc2ccc(C(=O)N3CCN(C4CCCC4)CC3)cn2)cc1C [Example 100, (4-Cyclopentyl-piperazin-1-yl)-[6-(3-methyl-4-methylsulfanyl-phenoxy)-pyridin-3-yl]-methanone]	–
8.70	7.80	–	O=C(c1ccc(Oc2ccccc2)nc1)N1CCCN(C2CCC2)CC1 [Example 21, (4-Cyclobutyl-[1,4]diazepan-1-yl)-(6-phenoxy-pyridin-3-yl)-methanone]	–
7.96	7.49	–	CSc1ccc(Oc2ccc(C(=O)N3CCCN(C4CCC4)CC3)cn2)cc1 [Example 105, (4-Cyclobutyl-[1,4]diazepan-1-yl)-[6-(4-methylsulfanyl-phenoxy)-pyridin-3-yl]-methanone]	–
9.00	7.77	–	N#Cc1cccc(Oc2ccc(C(=O)N3CCCN(C4CCC4)CC3)cn2)c1 [Example 20, 3-[5-(4-Cyclobutyl-[1,4]diazepane-1-carbonyl)-pyridin-2-yloxy]-benzonitrile]	–
7.25	–	–	CC(C)N1CCN(C(=O)c2ccc(Oc3cccc(Cl)c3)nc2)CC1 [Example 4, [6-(3-Chloro-phenoxy)-pyridin-3-yl]-(4-isopropyl-piperazin-1-yl)-methanone]	–

The next lines start with the compound.

Compound	pKi [1, 2]	pKi (Rat H3)	pKi [1, 3]	Kb (human H3 receptor)
O=C(c1ccc(Oc2ccccc2)nc1)N1CCCN(C2CC2)CC1 [Example 13, (4-Cyclopropyl-[1,4]diazepan-1-yl)-(6-phenoxy-pyridin-3-yl)-methanone]	8.22	7.27	–	–
Cc1cc(Oc2ccc(C(=O)N3CCCN(C4CC4)CC3)nc2C#N)ccc1Cl [Example 57, 3-(4-Chloro-3-methyl-phenoxy)-6-(4-cyclopropyl-[1,4]diazepane-1-carbonyl)-pyridine-2-carbonitrile]	8.52	6.88	–	–
Cc1cc(Oc2ccc(C(=O)N3CCCN(C4CC4)CC3)cn2)ccc1Cl [Example 12, [6-(4-Chloro-3-methyl-phenoxy)-pyridin-3-yl]-(4-cyclopropyl-[1,4]diazepan-1-yl)-methanone]	8.30	7.29	–	5.5 nM
O=C(c1ccc(Oc2ccc(F)c(F)c2)nc1)N1CCCN(C2CC2)CC1 [Example 27, (4-Cyclopropyl-[1,4]diazepan-1-yl)-[6-(3,4-difluoro-phenoxy)-pyridin-3-yl]-methanone]	8.40	7.07	–	–
O=C(c1ccc(Oc2cc(F)cc(F)c2)nc1)N1CCCN(C2CCC2)CC1 [Example 36, (4-Cyclobutyl-[1,4]diazepan-1-yl)-[6-(3,5-difluoro-phenoxy)-pyridin-3-yl]-methanone]	9.00	7.52	–	–
O=C(c1ccc(Oc2cccc(Cl)c2)nc1)N1CCCN(C2CC2)CC1 [Example 23, [6-(3-Chloro-phenoxy)-pyridin-3-yl]-(4-cyclopropyl-[1,4]diazepan-1-yl)-methanone]	8.52	7.15	–	–
O=C(c1ccc(Oc2ccc(F)cc2F)nc1)N1CCCN(C2CC2)CC1 [Example 32, (4-Cyclopropyl-[1,4]diazepan-1-yl)-[6-(2,4-difluoro-phenoxy)-pyridin-3-yl]-methanone]	8.40	7.04	–	–
CC(C)N1CCCN(C(=O)c2ccc(Br)cn2)CC1 [(5-Bromo-pyridin-2-yl)-(4-isopropyl-[1,4]diazepan-1-yl)-methanone]	–	–	6.71	–
CC(C)N1CCN(C(=O)c2ccc(Oc3ccccc3)nc2)CC1 [Example 5, (4-Isopropyl-piperazin-1-yl)-(6-phenoxy-pyridin-3-yl)-methanone]	7.15	–	–	–
Cc1cc(Oc2ccc(C(=O)N3CCCN(C4CCC4)CC3)cn2)ccc1Cl [Example 16, [6-(4-Chloro-3-methyl-phenoxy)-pyridin-3-yl]-(4-cyclobutyl-[1,4]diazepan-1-yl)-methanone]	8.70	–	–	–
CC(C)N1CCN(C(=O)c2ccc(Oc3ccc(F)cc3)nc2)CC1 [Example 99, [6-(4-Fluoro-phenoxy)-pyridin-3-yl]-(4-isopropyl-piperazin-1-yl)-methanone]	7.55	–	–	–
O=C(c1ccc(Sc2ccc(F)cc2)cn1)N1CCCN(C2CCC2)CC1 [Example 84, (4-Cyclobutyl-[1,4]diazepan-1-yl)-[5-(4-fluoro-phenylsulfanyl)-pyridin-2-yl]-methanone trifluoroacetic acid salt]	8.70	7.43	–	–
CC(C)N1CCCN(C(=O)c2cccc(Br)n2)CC1 [(6-Bromo-pyridin-2-yl)-(4-isopropyl-[1,4]diazepan-1-yl)-methanone]	–	–	6.12	–
O=C(c1cccc(Oc2ccc(Cl)c(Cl)c2)n1)N1CCCN(C2CC2)CC1 [Example 44, (4-Cyclopropyl-[1,4]diazepan-1-yl)-[6-(3,4-dichloro-phenoxy)-pyridin-2-yl]-methanone]	6.49	–	–	–
Cc1cc(Oc2cccc(C(=O)N3CCCN(C4CC4)CC3)n2)ccc1Cl [Example 47, [6-(4-Chloro-3-methyl-phenoxy)-pyridin-2-yl]-(4-cyclopropyl-[1,4]diazepan-1-yl)-methanone trifluoroacetic acid salt]	6.45	–	–	–
